In ChEMBL document CHEMBL1153709, “NSAID-derived gamma-secretase modulators. Part III: Membrane anchoring” (Bioorg Med Chem Lett, 2009):

Tests used:
Format in all cases: cell-based
Gamma-secretase [1] = experiment: Modulation of gamma-secretase in human H4 cells assessed as increase in amyloid beta38 production by LPECL assay
Gamma-secretase [2] = experiment: Modulation of gamma-secretase in human H4 cells assessed as inhibition of in amyloid beta40 production by LPECL assay
Gamma-secretase [3] = experiment: Modulation of gamma-secretase in human H4 cells assessed as inhibition of in amyloid beta42 production by LPECL assay
H4 = experiment: Cytotoxicity against human H4 cells by MTS assay
[4] = target: Gamma-secretase (Homo sapiens) (UniProt Q96BI3+Q9NZ42+Q8WW43+P49768+Q92542+P49810); experiment: Modulation of gamma-secretase in human H4 cells assessed as reduction of in amyloid beta42 production at 40 uM by LPECL assay; design: scale not given: the % may be the effect or the level left

| Compound | EC50 (Gamma-secretase [1]) [µM] | IC50 (Gamma-secretase [2]) [µM] | IC50 (Gamma-secretase [3]) [µM] | Activity (H4) [µM] | Activity [4] [%] |
| --- | --- | --- | --- | --- | --- |
| O=C(O)COc1ccc2c3ccccc3n(Cc3cccc(C4(C(F)(F)F)N=N4)c3)c2c1 | > 80 | > 80 | > 80 |  |  |
| CN(C)c1cccc2c(S(=O)(=O)n3c4ccccc4c4ccc(OCC(=O)O)cc43)cccc12 | > 40 | > 40 | > 40 | 80 |  |
| CCCCCCCC/C=C/CCCCCCCC(=O)n1c2ccccc2c2ccc(OCC(=O)O)cc21 | 9.3 | > 40 | 13 |  |  |
| CCCCCCCCCCCCCCO/N=C(/c1ccc(Cl)cc1)c1ccc(OC(C)(C)C(=O)O)cc1 | > 80 | > 80 | > 80 |  |  |
| CCCCCCCCCCCCCCCCCCn1c2ccccc2c2ccc(OCC(=O)O)cc21 | 1.4 | > 80 | 26 |  |  |
| CC(C)(Oc1ccc(C(/N=N/c2ccc([N+](=O)[O-])cc2[N+](=O)[O-])c2ccc(Cl)cc2)cc1)C(=O)O (stereo not given) | 47.6 | 37.3 | 17 | 80 |  |
| CC(C)(Oc1ccc(/C(=N\OCCCCCCCCO/N=C(/c2ccc(Cl)cc2)c2ccc(OC(C)(C)C(=O)O)cc2)c2ccc(Cl)cc2)cc1)C(=O)O | 47.6 | 37.3 | 23.7 |  |  |
| CCCCCCCCCCCCCCCCO/N=C(/c1ccc(Cl)cc1)c1ccc(OC(C)(C)C(=O)O)cc1 | > 80 | > 80 | > 80 |  |  |
| CCCCCCCCCC(=O)n1c2ccccc2c2ccc(OCC(=O)O)cc21 | 12.6 | > 40 | 22.4 |  |  |
| CCCCCCCCCO/N=C(/c1ccc(Cl)cc1)c1ccc(OC(C)(C)C(=O)O)cc1 | > 40 | > 40 | > 40 |  |  |
| CC(C)(Oc1ccc(/C(=N\OCCCCCCCCCCO/N=C(/c2ccc(Cl)cc2)c2ccc(OC(C)(C)C(=O)O)cc2)c2ccc(Cl)cc2)cc1)C(=O)O | > 40 | > 40 | > 32.6 | 80 |  |
| N#Cc1ccccc1-c1ccc(Cn2c3ccccc3c3ccc(OCC(=O)O)cc32)cc1 | > 80 | > 80 | > 80 |  |  |
| CCCCCCCCO/N=C(/c1ccc(Cl)cc1)c1ccc(OC(C)(C)C(=O)O)cc1 | 16.1 | 47.6 | 36.2 | 80 | 60 |
| CCCCCCCCCCCO/N=C(/c1ccc(Cl)cc1)c1ccc(OC(C)(C)C(=O)O)cc1 | > 40 | > 40 | > 40 |  |  |
| CCCCCCCC/C=C\CCCCCCCC(=O)n1c2ccccc2c2ccc(OCC(=O)O)cc21 | 9.2 | > 40 | 13.1 |  |  |
| CN(C)c1ccc(/N=N/c2ccc(S(=O)(=O)n3c4ccccc4c4ccc(OCC(=O)O)cc43)cc2)cc1 | 7.6 | > 80 | 9 |  |  |
| CCCCCCCCCCO/N=C(/c1ccc(Cl)cc1)c1ccc(OC(C)(C)C(=O)O)cc1 | > 80 | > 80 | 36.1 |  | 60 |
| CCCCCCCCCCCCO/N=C(/c1ccc(Cl)cc1)c1ccc(OC(C)(C)C(=O)O)cc1 | > 40 | > 40 | > 40 | 80 |  |
| CC(C)(Oc1ccc(/C(=N\OCCCCCCCCCO/N=C(/c2ccc(Cl)cc2)c2ccc(OC(C)(C)C(=O)O)cc2)c2ccc(Cl)cc2)cc1)C(=O)O | > 40 | > 40 | > 40 | 80 |  |
